US20060183773A1, “Uses of methylphenidate derivatives” (priority 2005, published 2006)

Assays:
Type in all cases: cell-based, human
[1] = tested on: peripheral blood lymphocytes (PBL); assay: PBL proliferation, Promega cell titer assay; details: for proliferation of PBL stimulated with PHA (OD at 530 nm): donor GR283; for proliferation of PBL (OD at 530 nm): Dex 10 μM
Description: Whole blood was drawn from GR283, a human volunteer with known allergies, into a glass vacutainer tube containing no anticoagulant. This blood was allowed to clot, and the serum was removed by centrifugation and then heat inactivated by placing it in a water bath at 56° C. for 30 minutes. Whole blood from GR283 was also drawn into a glass vacutainer tube containing heparin and used for peripheral blood lymphocytes (PBL) isolation as follows. Whole blood was layered over room temperature Histopaque 1077 solution and centrifuged at 2000 rpm for 15 minutes at room temperature. Cells at the plasma-Histopaque interface were then removed and washed with culture medium (IMDM medium with 10% heat-inactivated GR283 serum plus 1% penicillin/streptomycin) at 37° C.
Then, GR283's PBL in culture medium were added to the wells to give a final concentration of 150,000 cells per well, and the plates were incubated at 37° C., 5% CO2 for 24 hours. After this incubation, phytohemagglutinin (PHA) in culture medium was added to give final concentrations of 2 μg/ml, 5 μg/ml or 20 μg/ml, final total volume of 200 μl/well, and the cells were incubated for an additional 72 hours at 37° C., 5% CO2. All cultures were performed in triplicate.
Cell proliferation was assayed by adding 20 μl of Promega cell titer solution to each well and incubating the plate for an additional 4 hours. Promega cell titer solution is a solution containing a tetrazolium dye that is reduced by living cells to a formazan dye, and this reduction is proportional to the number of living cells present in the well. After the 4-hour incubation, the optical density (OD) at 530 nm of each well was measured. The OD at 530 nm for blank wells containing no cells was subtracted from the OD of the experimental wells.
Then, GR467's PBL in culture medium were added to the wells to give a final concentration of 150,000 cells per well, and the plates were incubated at 37° C., 5% CO2 for 24 hours. After this incubation, PHA was added to give a final concentration of 2 μg/ml, final total volume of 200 μl/well, and the cells were incubated for an additional 72 hours at 37° C., 5% CO2. All cultures were performed in triplicate.
Then, GR191's PBL in culture medium were added to the wells to give a final concentration of 150,000 cells per well, and the plates were incubated at 37° C., 5% CO2 for 24 hours. After this incubation, PHA was added to give final concentrations of 2 μg/ml and 5 μg/ml, final total volume of 200 μl/well, and the cells were incubated for an additional 72 hours at 37° C., 5% CO2. All cultures were performed in triplicate.

c-Jun = c-Jun in VEGF-treated HUVECs, TransAM AP-1 assay; details: for Mean OD 450 nm (c-Jun): control 0.204, VEGF only 0.261
Description: The flasks were incubated overnight at 37° C., 5% CO2 After this incubation, vascular endothelial growth factor (VEGF) (obtained from Sigma) was added to give a final concentration 10 ng/ml, and the flasks were incubated for an additional 30 minutes.
The amount of c-Jun was determined using a TransAM™ AP-1 Family Transcription Factor Assay Kit and a Nuclear Extract Kit from Active Motif North America, Carlsbad, Calif., according to manufacturer's instructions. Briefly, a nuclear extract of the cells was prepared using the Nuclear Extract Kit. Then, the nuclear extract was added to the wells of a 96-well plate in which oligonucleotide containing a TPA-responsive element (TRE) was immobilized. Activator protein-1 (AP-1) dimers contained in the nuclear extract were bound to this oligonucleotide and were detected using an antibody specific for c-Jun. A secondary antibody conjugated to horseradish peroxidase (HRP) was next added to provide a colorimetric readout that was quantified by spectrophotometry (measurement at 450 nm).

IFNγ = IFNγ release by PBL, ELISA; details: donor GR467, Cpd II 15 μg/ml, MP 15 μg/ml, Dex 10 μM, FIG. 4; for IFNγ release, cells stimulated with PHA: 2 μg/ml PHA, 96 h; for IFNγ release, unstimulated cells: no PHA
Description: After this incubation, PHA was added to give a final concentration of 2 μg/ml, and the cells were incubated for an additional 96 hours at 37° C., 5% CO2. All cultures were performed in triplicate. Cells were then removed by centrifugation at 1000 rpm for 10 minutes, and the culture medium collected.
Release of IL-13 and interferon gamma (IFNγ) into the culture medium was measured by ELISA. To perform the ELISA, matched pairs of antibodies against human IL-13 and IFNγ were purchased from Pierce Biotechnology and Biosource, respectively. ELISA strip well plates were coated with 10 μg/ml of antibody (in phosphate-buffered saline (PBS)) to IL-13 and 4 μg/ml of antibody to IFNγ (in PBS) overnight at room temperature. The plates were then blocked using a 4% BSA solution in PBS for one hour, followed by the addition of 50 μl of experimental culture medium per well in duplicate. The plates were incubated at room temperature for one hour and then washed using 50 mM Tris pH 8.0 with 0.1% Tween 20. Then, solutions of 400 ng/ml biotinylated second antibody to IL-13 and 500 ng/ml biotinylated second antibody to IFNγ were made in blocking buffer, and 100 μl were added per well. The plates were incubated for 1 hour and washed again. A 1:8000 dilution of Strepavidin HRP (Pierce Biotechnology) conjugate was made in blocking buffer, and 100 μl were added to the wells and incubation continued for 30 minutes. A final wash step was performed, after which 100 μl Pierce Biotechnology TMB substrate were added to each well. Color was developed for 30 minutes and stopped by adding 100 μl 0.18 N H2SO4. OD was determined using microplate reader with a 450 nm filter.

COC(=O)C(c1ccccc1)C1CCCCN1 (centres unmarked) [methylphenidate]
proliferation of PBL stimulated with PHA (OD at 530 nm) ([1]; methylphenidate at the other dose / PHA combinations): did not significantly reduce the proliferation of the PHA-stimulated PBL
proliferation of PBL stimulated with PHA (OD at 530 nm) ([1]; methylphenidate highest dose (50 μg/ml), lowest PHA dose (2 μg/ml)): showed a significant effect at its highest dose and the lowest PHA dose
Mean OD 450 nm (c-Jun) (c-Jun; VEGF 10 ng/ml + 15 μg/ml): 0.230 ± 0.016
IFNγ release, cells stimulated with PHA (IFNγ): increased the release of IFNγ by the PHA-stimulated cells
IFNγ release, unstimulated cells (IFNγ): had some effect on the release of IFNγ by unstimulated cells

COC(=O)C(c1ccc(-c2ccccc2)cc1)C1CCCCN1 (centres unmarked) [Cpd II]
proliferation of PBL (OD at 530 nm) ([1]; donor GR191, unstimulated and PHA 2, 5 μg/ml, Cpd II 5, 15, 25, 50 μg/ml, MP 50 μg/ml, FIGS. 5A-B): significantly inhibited the proliferation of PBL, both unstimulated and stimulated with PHA
proliferation of PBL stimulated with PHA (OD at 530 nm) ([1]; PHA 2, 5, 20 μg/ml, Cpd II 5, 15, 50 μg/ml, Dex 10 μg/ml, FIGS. 1A-C): significantly inhibited the proliferation of PBL stimulated with PHA in a dose-dependent manner
proliferation of PBL (OD at 530 nm) ([1]; donor GR467, unstimulated and 2 μg/ml PHA, Cpd II 5, 15, 25 μg/ml, MP 15 μg/ml, FIG. 2): significantly inhibited the proliferation of PBL, both unstimulated and stimulated with PHA
Mean OD 450 nm (c-Jun) (c-Jun; VEGF 10 ng/ml + 1 μg/ml): 0.221 ± 0.008
Mean OD 450 nm (c-Jun) (c-Jun; VEGF 10 ng/ml + 5 μg/ml): 0.185 ± 0.025
Mean OD 450 nm (c-Jun) (c-Jun; VEGF 10 ng/ml + 15 μg/ml): 0.204 ± 0.010
amount of c-Jun (in words) (c-Jun; VEGF, 15 μg/ml and 5 μg/ml): completely eliminated the increase in the amount of c-Jun
IFNγ release, cells stimulated with PHA (IFNγ): significantly inhibited IFNγ release
IFNγ release, unstimulated cells (IFNγ): significantly inhibited IFNγ release
